Measured values taken from the supplement of paper PMC12137928.
Counter-ions that a name gives are not always drawn.

Test system: HCT116
Conditions: 72 h
Procedure, shortened: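 IC50 and maximal efficacy were derived from four-parameter Hill curve fits. The underlying CellTiter-Glo luminescence was scaled so that vehicle equals 0% and positive control equals -100%, and was then pattern-corrected. HCT116 cells had been seeded in 1536-well plates at 250 per well.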

IC50 cell viability (ICRF193 0 nM)	IC50 cell viability (ICRF193 200 nM)	Compound
> 45.8 µM	> 45.8 µM	CN(N=O)C(=O)N[C@@H](C=O)[C@@H](O)[C@H](O)[C@H](O)CO [Streptozotocin]
> 45.8 µM	> 45.8 µM	N#Cc1c(N(CC(=O)O)CC(=O)O)sc(C(=O)O)c1CC(=O)O [Strontium Ranelate]
> 45.8 µM	> 45.8 µM	C[N+](C)(C)CCOC(=O)CCC(=O)OCC[N+](C)(C)C [Succinylcholine chloride]
> 45.8 µM	> 45.8 µM	O=C(O)CCC(=O)Nc1ccc(S(=O)(=O)Nc2nccs2)cc1 [Succinylsulfathiazole]
> 45.8 µM	> 45.8 µM	CC(=O)OC[C@H]1O[C@@](COC(C)=O)(O[C@H]2O[C@H](COC(C)=O)[C@@H](OC(C)=O)[C@H](OC(C)=O)[C@H]2OC(C)=O)[C@@H](OC(C)=O)[C@@H]1OC(C)=O [Sucrose octaacetate]
> 45.8 µM	> 45.8 µM	O=S(=O)(O)OC[C@H]1O[C@@](COS(=O)(=O)O)(O[C@H]2O[C@H](COS(=O)(=O)O)[C@@H](OS(=O)(=O)O)[C@H](OS(=O)(=O)O)[C@H]2OS(=O)(=O)O)[C@@H](OS(=O)(=O)O)[C@@H]1OS(=O)(=O)O [Sucrose octasulfate, sodium salt]
> 45.8 µM	> 45.8 µM	OC[C@H]1O[C@@](CO)(O[C@H]2O[C@H](CO)[C@@H](O)[C@H](O)[C@H]2O)[C@@H](O)[C@@H]1O [Sucrose]
> 45.8 µM	> 45.8 µM	CC1(C)S[C@@H]2[C@H](NC(=O)C(c3ccccc3)S(=O)(=O)O)C(=O)N2[C@H]1C(=O)O (stereo partly specified) [Sulbenicillin disodium]
> 45.8 µM	> 45.8 µM	S=C1SCN(Cc2ccccc2)CN1Cc1ccccc1 [Sulbentine]
> 45.8 µM	> 45.8 µM	CCOC(=O)c1ccc(NC(=O)CN2CCCCC2)cc1 [Sulcaine]
> 45.8 µM	> 45.8 µM	Nc1ccc(S(=O)(=O)NC(=O)c2ccccc2)cc1 [Sulfabenzamide]
> 45.8 µM	> 45.8 µM	Cc1nc(NS(=O)(=O)c2ccc(N)cc2)nc(C)c1Br [Sulfabromomethazine]
> 45.8 µM	> 45.8 µM	CC(=O)NS(=O)(=O)c1ccc(N)cc1 [Sulfacetamide]
> 45.8 µM	> 45.8 µM	CCn1ccc(NS(=O)(=O)c2ccc(N)cc2)nc1=O [Sulfacytine]
> 45.8 µM	> 45.8 µM	N=C(N)NS(=O)(=O)c1ccc(N)cc1 [Sulfaguanidine]
> 45.8 µM	> 45.8 µM	COc1nccnc1NS(=O)(=O)c1ccc(N)cc1 [Sulfalene]
> 45.8 µM	> 45.8 µM	Cc1ccnc(NS(=O)(=O)c2ccc(N)cc2)n1 [Sulfamerazine]

IC50 cell viability (ICRF193 0 nM)	IC50 cell viability (ICRF193 200 nM)	Compound
> 45.8 µM	> 45.8 µM	COc1cnc(NS(=O)(=O)c2ccc(N)cc2)nc1 [Sulfameter]
> 45.8 µM	> 45.8 µM	Cc1cc(C)nc(NS(=O)(=O)c2ccc(N)cc2)n1 [Sulfamethazine]
> 45.8 µM	> 45.8 µM	O=C(O)c1cc(/N=N/c2ccc(S(=O)(=O)Nc3ccccn3)cc2)ccc1O [Sulfasalazine]
> 45.8 µM	> 45.8 µM	NC(=S)NS(=O)(=O)c1ccc(N)cc1 [Sulfathiourea]
> 45.8 µM	> 45.8 µM	CC(=O)N(c1onc(C)c1C)S(=O)(=O)c1ccc(N)cc1 [Sulfisoxazole acetal]
> 45.8 µM	> 45.8 µM	CC1=C(CC(=O)O)c2cc(F)ccc2/C1=C\c1ccc([S+](C)[O-])cc1 (stereo unspecified) [Sulindac]
> 45.8 µM	> 45.8 µM	COc1cc(O)c(C(=O)c2ccccc2)cc1S(=O)(=O)O [Sulisobenzone]
> 45.8 µM	> 45.8 µM	CC1(C)S[C@@H]2[C@H](NC(=O)[C@H](N)c3ccccc3)C(=O)N2[C@H]1C(=O)OCOC(=O)[C@@H]1N2C(=O)C[C@H]2S(=O)(=O)C1(C)C [Sultamicillin tosylate]
> 45.8 µM	> 45.8 µM	NS(=O)(=O)c1ccc(N2CCCCS2(=O)=O)cc1 [Sulthiame]
> 45.8 µM	> 45.8 µM	CCN1CCCC1CNC(=O)c1cc(S(=O)(=O)CC)ccc1OC (stereo unspecified) [Sultopride hydrochloride]
> 45.8 µM	> 45.8 µM	CCOCC(O)COc1ccc(NC(=O)CC[S+](C)C)cc1 (stereo unspecified) [Suplatast tosylate]
> 45.8 µM	> 45.8 µM	CC(C(=O)O)c1ccc(C(=O)c2cccs2)cc1 (stereo unspecified) [Suprofen]
> 45.8 µM	> 45.8 µM	CC[C@H]1OC(=O)[C@H](C)C(=O)[C@H](C)[C@@H](O[C@@H]2O[C@H](C)C[C@H](N(C)C)[C@H]2O)[C@](C)(OC)C[C@@H](C)C(=O)[C@H](C)[C@H]2N(CCCCn3cnc(-c4cccnc4)c3)C(=O)O[C@]12C [TELITHROMYCIN]
> 45.8 µM	> 45.8 µM	CC[C@H]1OC(=O)C[C@@H](O)[C@H](C)[C@@H](O[C@@H]2O[C@H](C)[C@@H](O)[C@H](N(C)C)[C@H]2O)[C@@H](CCN2C[C@H](C)C[C@H](C)C2)C[C@@H](C)C(=O)/C=C/C(C)=C/[C@@H]1CO[C@@H]1O[C@H](C)[C@@H](O)[C@@H](OC)[C@H]1OC [TILMICOSIN]
> 45.8 µM	> 45.8 µM	CCOC(=O)[C@H](CCc1ccccc1)N[C@@H](C)C(=O)N1[C@H](C(=O)O)C[C@H]2CCCC[C@@H]21 [TRANDOLAPRIL]
> 45.8 µM	> 45.8 µM	NC[C@H]1CC[C@H](C(=O)O)CC1 [TRANEXAMIC ACID]

More lines, now with the values behind:

Compound	IC50 cell viability (ICRF193 0 nM)	IC50 cell viability (ICRF193 200 nM)
O=C1C[C@@H]2OCC=C3CN4CC[C@]56c7ccccc7N1[C@H]5[C@H]2[C@H]3C[C@H]46 [Strychnine]	> 45.8 µM	> 45.8 µM
C=Cc1ccccc1 [Styrene]	> 45.8 µM	> 45.8 µM
O=C(O)CCSC[C@H]1O[C@@H]2O[C@H]3[C@H](O)[C@@H](O)[C@@H](O[C@H]4[C@H](O)[C@@H](O)[C@@H](O[C@H]5[C@H](O)[C@@H](O)[C@@H](O[C@H]6[C@H](O)[C@@H](O)[C@@H](O[C@H]7[C@H](O)[C@@H](O)[C@@H](O[C@H]8[C@H](O)[C@@H](O)[C@@H](O[C@H]9[C@H](O)[C@@H](O)[C@@H](O[C@H]1[C@H](O)[C@H]2O)O[C@@H]9CSCCC(=O)O)O[C@@H]8CSCCC(=O)O)O[C@@H]7CSCCC(=O)O)O[C@@H]6CSCCC(=O)O)O[C@@H]5CSCCC(=O)O)O[C@@H]4CSCCC(=O)O)O[C@@H]3CSCCC(=O)O [Sugammadex]	> 45.8 µM	> 45.8 µM
Nc1ccc(S(=O)(=O)Nc2ccc(Cl)nn2)cc1 [Sulfachloropyridazine]	> 45.8 µM	> 45.8 µM
COc1cc(NS(=O)(=O)c2ccc(N)cc2)nc(OC)n1 [Sulfadimethoxine]	> 45.8 µM	> 45.8 µM
COc1ncnc(NS(=O)(=O)c2ccc(N)cc2)c1OC [Sulfadoxine]	> 45.8 µM	> 45.8 µM
CCOc1ccc(NS(=O)(=O)c2ccc(N)cc2)nn1 [Sulfaethoxypyridazine]	> 45.8 µM	> 45.8 µM
Cc1nnc(NS(=O)(=O)c2ccc(N)cc2)s1 [Sulfamethizole]	> 45.8 µM	> 45.8 µM
COc1cc(NS(=O)(=O)c2ccc(N)cc2)nc(C)n1 [Sulfamethomidine]	> 45.8 µM	> 45.8 µM
Cc1cc(NS(=O)(=O)c2ccc(N)cc2)no1 [Sulfamethoxazole]	> 45.8 µM	> 45.8 µM
COc1ccc(NS(=O)(=O)c2ccc(N)cc2)nn1 [Sulfamethoxypyridazine]	> 45.8 µM	> 45.8 µM
COc1cc(NS(=O)(=O)c2ccc(N)cc2)ncn1 [Sulfamonomethoxine]	> 45.8 µM	> 45.8 µM
Nc1ccc(S(N)(=O)=O)cc1 [Sulfanilamide]	> 45.8 µM	> 45.8 µM
CC(=O)Nc1ccc(S(=O)(=O)Nc2ccc([N+](=O)[O-])cc2)cc1 [Sulfanitran]	> 45.8 µM	> 45.8 µM
Nc1ccc(S(=O)(=O)Nc2ccnn2-c2ccccc2)cc1 [Sulfaphenazole]	> 45.8 µM	> 45.8 µM
Nc1ccc(S(=O)(=O)Nc2ccccn2)cc1 [Sulfapyridine]	> 45.8 µM	> 45.8 µM
Nc1ccc(S(=O)(=O)Nc2cnc3ccccc3n2)cc1 [Sulfaquinoxaline]	> 45.8 µM	> 45.8 µM
Nc1ccc(S(=O)(=O)Nc2nccs2)cc1 [Sulfathiazole]	> 45.8 µM	> 45.8 µM
Cc1cc(NS(=O)(=O)c2ccc(N)cc2)nc(C)n1 [Sulfisomidine]	> 45.8 µM	> 45.8 µM
Cc1noc(NS(=O)(=O)c2ccc(N)cc2)c1C [Sulfisoxazole]	> 45.8 µM	> 45.8 µM
O=C1OC(c2ccc(O)c(S(=O)(=O)O)c2)(c2ccc(O)c(S(=O)(=O)O)c2)c2c(Br)c(Br)c(Br)c(Br)c21 [Sulfobromophthalein]	> 45.8 µM	> 45.8 µM
CNS(=O)(=O)Cc1ccc2[nH]cc(CCN(C)C)c2c1 [Sumatriptan]	> 45.8 µM	> 45.8 µM
O=c1n(Cl)c(=O)n(Cl)c(=O)n1Cl [Symclosene]	> 45.8 µM	> 45.8 µM
CNCc1cc(-c2ccccc2F)n(S(=O)(=O)c2cccnc2)c1 [TAK 438]	> 45.8 µM	> 45.8 µM
Cc1cc(-c2ccc(/N=N/c3c(S(=O)(=O)O)cc4cc(S(=O)(=O)O)cc(N)c4c3O)c(C)c2)ccc1/N=N/c1c(S(=O)(=O)O)cc2cc(S(=O)(=O)O)cc(N)c2c1O [TRYPAN BLUE]	> 45.8 µM	> 45.8 µM
